# Measurements as given in patent US20150139950A1, “ALISPORIVIR TO TREAT HEPATITIS C VIRUS INFECTION” (Novartis AG, priority 2011, published 2015).
# System: Hepatitis C virus genotype 1
# Experiment: Clinical study of alisporivir/peg-IFNα2a/ribavirin in treatment naïve chronic HCV genotype 1 patients, by IL28B genotype
# Assay type: in vivo, human
# From the text: An international, multicentre, randomised, double-blind, placebo-controlled, 4-arm parallel-group multiple dose study comparing three alisporivir/peg-IFNα2a/ribavirin regimens to standard of care treatment in 272 treatment naïve chronic HCV genotype 1 patients is provided.
# Patients are randomized into one of 3 treatment arms (A, B and C) as described below in a 1:1:1 ratio. The randomization is stratified by baseline HCV RNA (HCV RNA<800000 IU/mL or HCV RNA≧800000 IU/mL) and BMI (BMI<25 kg/m2 or BMI≧25 kg/m2) at screening.
# Alisporivir: 3 capsules of 200 mg (600 mg) alisporivir 2×/day orally for 1 week followed by 3 capsules of 200 mg alisporivir (600 mg) 1×/day for 47 weeks.
# Pegylated interferon alfa 2a: 180 μg subcutaneously (s.c.) once weekly for 48 weeks
# Ribavirin: 1000 mg/day (<75 kg) or 1200 mg/day (≧75 kg) orally in two divided doses for 48 weeks
# Primary efficacy endpoint: proportion of patients achieving SVR 24 (HCV RNA<10 IU/mL at maximum 24 weeks after treatment end).
# Genotyping of IL-28B by was carried out using the MALDI-TOF MS (matrix-assisted laser desorption/ionization time-of-flight mass spectrometer) technique which has emerged as a widely applicable method in molecular biology for fast and highly accurate DNA analysis. […]
# Frequency of genetic polymorphisms of IL28B was calculated by treatment arm. […]
compound,measurement,setting,value
"C/C=C/C[C@@H](C)[C@@H](O)[C@H]1C(=O)N[C@@H](CC)C(=O)N(C)[C@H](C)C(=O)N(CC)[C@@H](C(C)C)C(=O)N[C@@H](C(C)C)C(=O)N(C)[C@@H](CC(C)C)C(=O)N[C@@H](C)C(=O)N[C@H](C)C(=O)N(C)[C@@H](CC(C)C)C(=O)N(C)[C@@H](CC(C)C)C(=O)N(C)[C@@H](C(C)C)C(=O)N1C [alisporivir, Alisporivir]",treatment results of chronic Hepatitis C virus genotype 1 infection,patient with IL28B nonC/C genotype,particularly satisfactory treatment results
same,treatment of HCV,patients with IL28B C/C genotype,can also be used effectively
